{"source": "patent EP4631960A1", "about": "“PEPTIDE HAVING INHIBITORY ACTIVITY AGAINST OSTEOCLAST DIFFERENTIATION, AND USE THEREOF” (Caregen Co., Ltd., priority 2022, dated 2024)", "system": "RAW264.7 cells", "test": "CCK-8 cytotoxicity evaluation", "type": "cell-based", "settings": "CCK-8 activity at 450 nm, after 3 days, FIG. 3", "method": "Then, after 3 days, CCK-8 (Dojindo, CCK-8 kit) solution was added to 1/10 volume of the culture medium, diluted, and incubated for 2 hours. Thereafter, the culture medium was sampled and CCK-8 activity was confirmed at a wavelength of 450 nm using a microplate reader.", "note": "Peptide text beside a SMILES is read from it.", "data": [{"smiles": "CC[C@H](C)[C@H](N)C(=O)N[C@H](C(=O)N[C@@H](C)C(=O)N1CCC[C@H]1C(=O)N[C@H](C(=O)NCC(=O)N[C@@H](Cc1ccc(O)cc1)C(=O)N[C@@H](Cc1ccc(O)cc1)C(=O)NCC(=O)N[C@@H](CC(N)=O)C(=O)O)[C@@H](C)O)[C@@H](C)CC", "note": "[Peptide-2, IIAPTGYYGN] (H-IIAPTGYYGN-OH)", "values": [{"measurement": "cytotoxicity", "result": "did not exhibit cytotoxicity"}]}]}
